SMILES strings stand for the structures. Counter-ions that a name gives are not always drawn.

For orientation: IC50 means the midpoint of a concentration-inhibition curve.

The subject of test [1] is S. aureus. To be noted: mice treated with 1, compared to control group; cited from earlier work.
Test [2] has as its target human squalene synthase (SQS) (Homo sapiens, UniProt P37268). Type of test: biochemical. Particulars: experimental data.
Test [3] deals with S. aureus CrtM (dehydrosqualene synthase) (Staphylococcus aureus, UniProt A9JQL9). In words: CrtM enzyme inhibition assay. Type of test: biochemical.
Sequence of S. aureus CrtM (dehydrosqualene synthase) (A9JQL9 whole entry): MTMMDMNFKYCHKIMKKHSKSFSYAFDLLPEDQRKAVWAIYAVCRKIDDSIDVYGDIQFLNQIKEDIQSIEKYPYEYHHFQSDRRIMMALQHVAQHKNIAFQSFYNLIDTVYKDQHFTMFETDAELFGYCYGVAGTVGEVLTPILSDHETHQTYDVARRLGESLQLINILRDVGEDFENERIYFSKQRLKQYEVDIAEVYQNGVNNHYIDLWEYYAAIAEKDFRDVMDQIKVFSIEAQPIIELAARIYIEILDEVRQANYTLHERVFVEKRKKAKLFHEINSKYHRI
Test [4] deals with STX biosynthesis in S. aureus. The test is described as follows: Staphyloxanthin biosynthesis inhibition assay. It counts as cell-based. Particulars: Staphylococcus aureus, 72 h, read-out: staphyloxanthin IC50.

Sequence of human squalene synthase (SQS) (P37268 31-370): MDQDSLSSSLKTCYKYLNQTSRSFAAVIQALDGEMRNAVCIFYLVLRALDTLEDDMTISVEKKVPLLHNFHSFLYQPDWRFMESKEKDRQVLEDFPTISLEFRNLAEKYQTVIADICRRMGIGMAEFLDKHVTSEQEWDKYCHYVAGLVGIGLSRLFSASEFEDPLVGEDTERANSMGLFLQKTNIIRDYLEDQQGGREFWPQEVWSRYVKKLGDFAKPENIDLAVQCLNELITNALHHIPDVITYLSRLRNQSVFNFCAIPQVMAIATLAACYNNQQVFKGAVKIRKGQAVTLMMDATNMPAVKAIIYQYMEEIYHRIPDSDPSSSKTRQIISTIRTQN

Regarding `O=P([O-])([O-])C(CCCc1cccc(Oc2ccccc2)c1)S(=O)(=O)[O-].[K+].[K+].[K+]` (stereo not shown) [Compound 1, 1-Phosphono-4-(3-phenoxyphenyl)butylsulfonic Acid Tripotassium Salt], in test [1], the “bacterial counts in kidneys reduced” value is listed as 98%.
In the case of `O=P([O-])([O-])C(CCCc1ccc(-c2ccc(C(F)(F)F)cc2)cc1)P(=O)([O-])[O-].[K+].[K+].[K+].[K+]` [Compound 3], in test [2], the “pIC50(CrtM) – pIC50(hSQS)” value was −1.86 M. It took 0.182 µM to reach half-maximal inhibition in test [3] (IC50).
`O=P([O-])([O-])C(CCCc1cccc(Oc2ccc(F)cc2)c1)S(=O)(=O)[O-].[K+].[K+].[K+]` (stereo not shown) [Compound 5, 1-Phosphono-4-[3-(4-fluorophenoxy)phenyl]butylsulfonic Acid Tripotassium Salt]: the “as active as 1 in CrtM inhibition” value in test [3] was ~4 ×.
Take `CCCc1ccc(Oc2cccc(CCCC(P(=O)([O-])[O-])S(=O)(=O)[O-])c2)cc1.[K+].[K+].[K+]` (stereo not shown) [Compound 6, 1-Phosphono-4-[3-(4-propylphenoxy)phenyl]butylsulfonic Acid Tripotassium Salt]: the “as active as 1 in CrtM inhibition” value in test [3] is recorded as ~4 ×.
As for `O=P([O-])([O-])C(CCCc1cccc(Oc2ccccc2Cc2ccccc2)c1)S(=O)(=O)[O-].[K+].[K+].[K+]` (stereo not shown) [Compound 8, 1-Phosphono-4-[3-(2-benzylphenoxy)phenyl]butylsulfonic Acid Tripotassium Salt], the “less active than 1 in CrtM inhibition” value in test [3] is on record as “≈ 5 ×”.
Consider `O=P([O-])([O-])C(Cc1cccc(Oc2ccccc2)c1)S(=O)(=O)[O-].[K+].[K+].[K+]` (stereo not shown) [Compound 14, 1-Phosphono-2-(3-phenoxyphenyl)ethylsulfonic Acid Tripotassium Salt], for which the “pIC50(CrtM) – pIC50(hSQS)” value in test [2] is recorded as −2.66 M.
Still for that read-out and setting: as for `O=P([O-])([O-])C(CCc1cccc(Oc2ccccc2)c1)S(=O)(=O)[O-].[K+].[K+].[K+]` (stereo not shown) [Compound 15, 1-Phosphono-3-(3-phenoxyphenyl)propylsulfonic Acid Tripotassium Salt], the figure is −2.96 M.
For the compound `O=P(O)(O)C(CCCc1cccc(Oc2ccc(O)cc2)c1)S(=O)(=O)O` (stereo not shown) [Compound 27, 1-Phosphono-4-[3-(4-hydroxyphenoxy)phenyl]butylsulfonic Acid Tripotassium Salt], the IC50 in test [4] stood at 6.8 µM.
Regarding `O=P([O-])([O-])[C@H](CCCc1cccc(Oc2ccccc2)c1)S(=O)(=O)[O-].[K+].[K+].[K+]` [Compound (S)-1, (1S)-1-Phosphono-4-(3-phenoxyphenyl)butylsulfonic Acid Tripotassium Salt], the “more active than its (R)-enantiomer in CrtM inhibition” value in test [3] (fold) is on record as ~30 ×.
